Measurements from patent publication US20240109915A1, “NOVEL ACC INHIBITORS” (Pfizer Inc., priority 2022, published 2024).

How the values were obtained:
[1] = test system: SZ95 sebocytes; assay: Radiometric measurement of de novo lipogenesis in cultured human sebocytes; format: cell-based; conditions: Geomean IC50, n>2 unless * then n=1, 14C acetate incorporation into lipids (DNL)
Procedure: SZ95 sebocytes were grown in Human Sebocyte Growth Medium (HSGM) containing Sebomed® basal medium (Sigma-Aldrich, F8205) supplemented with 10% heat-inactivated fetal bovine serum (Gibco, 10100-147), 1% penicillin/streptomycin (Gibco, 15070-063), 1 mM calcium chloride (Fisher, BP9742-10X5) and 5 ng/mL recombinant human epidermal growth factor (Gibco, PHG0311). At 90% confluence, cells were washed with PBS and then detached with 0.05% Trypsin-EDTA (Gibco, 25300054). Prior to starting the assay, cells were centrifuged and resuspended in HSGM containing 5% charcoal-stripped serum (Life Technologies, 12676-029) instead of 10% heat-inactivated fetal bovine serum. Cells were added to 24-well plates at a density of 0.25×10^6 cells/well and incubated overnight at 37° C. to allow the cells to adhere to the culture plate. Cells were then treated with a dose response of compound (30, 1, 0.03, 0.006, 0.0009, 0.0002, and 0.00003 μM) with each concentration tested in duplicate. Briefly, compounds were dissolved in DMSO stocks and diluted 1:1000 into HSGM with charcoal-stripped media. The vehicle control wells were treated with 0.1% DMSO. After a 1-hour preincubation with compound or vehicle at 37° C., 0.25 μCi ^14C sodium acetate (American Radiolabeled Chemicals: ARC, 0173A) was added to each well. Plates were incubated for an additional two hours at 37° C. At the end of the incubation period, cells were removed from incubator, placed on ice, and then washed twice with ice-cold PBS to remove free ^14C-sodium acetate. Plates were sealed and stored at −20° C. until analysis. To induce lysis, 125 μL of mammalian protein extraction reagent (MPER; Fisher, 78501) was added to each well. Plates were shaken for 1 hour at room temperature and lysates transferred to individual 2 mL polypropylene tubes. Wells were then washed with 175 μL PBS, which was added to lysates. A chloroform:methanol solution (1:1 v/v, 450 μL) was added to each tube. All tubes were vortexed for 10 seconds and centrifuged at 14,000×g for 5 minutes at room temperature to separate the aqueous and organic phases. A 25 μL aliquot was removed from the bottom organic layer of each sample and added to 6 mL Optiphase Supermix scintillation fluid (PerkinElmer, 1200-439). Counts of ^14C were assessed by scintillation counting. DNL (counts of ^14C incorporated into lipids) was expressed as a percentage for compound treated cells relative to the vehicle control. IC50 values were determined using a non-linear regression (four parameter with variable slope) in GraphPad Prism.

[2] = target: recombinant human ACC1 (rhACC1) (Homo sapiens (Human), UniProt Q13085); assay: Transcreener ADP detection FP assay, direct inhibition of rhACC1; format: biochemical; conditions: Geomean IC50, n ≥ 2 unless * then n = 1; 50 μM ATP, 30 μM acetyl-CoA
Procedure: The direct inhibition of ACC1 for the compounds of the present invention was determined using preparations of recombinant human ACC1 (rhACC1) (SEQ ID NO. 1)
Two liters of SF9 cells, infected with recombinant baculovirus containing full length human ACC1 cDNA, were suspended in ice-cold lysis buffer (25 mM Tris, pH 7.5; 150 mM NaCl; 10% glycerol; 5 mM imidazole (EMD Bioscience; Gibbstown, NJ); 2 mM TCEP (BioVectra; Charlottetown, Canada); Benzonase nuclease (10000 U/100 g cell paste; Novagen; Madison, WI); EDTA-free protease inhibitor cocktail (1 tab/50 ml; Roche Diagnostics; Mannheim, Germany). Cells were lysed by 3 cycles of freeze-thaw and centrifuged at 40,000×g for 40 minutes (4° C.). Supernatant was directly loaded onto a HisTrap FF crude column (GE Healthcare; Piscataway, NJ) and eluted with an imidazole gradient up to 0.5 M over 20 column volumes (CV). ACC1-containing fractions were pooled and diluted 1:5 with 25 mM Tris, pH 7.5, 2 mM TCEP, 10% glycerol and direct loaded onto a CaptoQ (GE Healthcare) column and eluted with an NaCl gradient up to 1 M over 20 CV's. Phosphate groups were removed from purified ACC1 by incubation with lambda phosphatase (100 U/10 μM target protein; New England Biolabs; Beverly, MA) for 14 hours at 4° C.; okadaic acid was added (1 μM final concentration; Roche Diagnostics) to inhibit the phosphatase. Purified ACC1 was exchanged into 25 mM Tris, pH 7.5, 2 mM TCEP, 10% glycerol, 0.5 M NaCl by 6 hour dialysis at 4° C. Aliquots were prepared and frozen at −80° C.
Measurement of rhACC1 Inhibition rhACC1 was assayed in a Corning #3820 (Corning, Tewksbury, MA) 384-well plate using the Transcreener ADP detection FP assay kit (Bellbrook Labs, Madison, Wisconsin) using the manufacturer's recommended conditions for a 50 μM ATP reaction. The final conditions for the assay were 50 mM HEPES, pH 7.2, 10 mM MgCl2, 7.5 mM tripotassium citrate, 2 mM DTT, 0.1 mg/mL BSA, 30 μM acetyl-CoA, 50 μM ATP, and 10 mM KHCO3. Typically, a […] was run for 60 min at room temp, and 10 μl of Transcreener stop and detect buffer was added and the combination incubated at room temp for an overnight (18 hours). The data was acquired on an Envision Fluorescence reader (PerkinElmer) using a 620 excitation Cy5 FP general dual mirror, 620 excitation Cy5 FP filter, 688 emission (S) and a 688 (P) emission filter.

| Compound | IC50 [1] | IC50 [2] |
| --- | --- | --- |
| Cc1cc(C(=O)N2CCC3(CC2)CC(=O)c2nc(C(C)(C)C)sc2C3)cc2cc[nH]c12 [Example 17, 2-(tert-butyl)-1′-(7-methyl-1H-indole-5-carbonyl)-5H-spiro[benzo[d]thiazole-6,4′-piperidin]-4(7H)-one] | 15.6 nM | 9.6 nM |
| COc1cc(C(=O)N2CCC3(CC2)CC(=O)c2nc(C(C)(C)C)sc2C3)c2[nH]ncc2c1C [Example 33, 2-(tert-butyl)-1′-(5-methoxy-4-methyl-1H-indazole-7-carbonyl)-5H-spiro[benzo[d]thiazole-6,4′-piperidin]-4(7H)-one] | 38.1 nM | 5.1 nM |
| CNc1ccc2c(C)cc(C(=O)N3CCC4(CC3)CC(=O)c3nc(C(C)(C)C)sc3C4)cc2n1 [Example 38, 2-(tert-butyl)-1′-(5-methyl-2-(methylamino)quinoline-7-carbonyl)-5H-spiro[benzo[d]thiazole-6,4′-piperidin]-4(7H)-one] | 14.2 nM | 4.9 nM |
| COc1cc(C(=O)N2CCC3(CC2)CC(=O)c2nc(C(C)(C)C)sc2C3)cc2[nH]ccc12 [Example 61] | 30.8 nM | 4.4 nM |
| Cc1cc(C(=O)N2CCC3(CC2)CC(=O)c2nc(C(C)(C)C)sc2C3)cc2ccccc12 [Example 16, 2-(tert-butyl)-1′-(4-methyl-2-naphthoyl)-5H-spiro[benzo[d]thiazole-6,4′-piperidin]-4(7H)-one] | 18.1 nM | 7.3 nM |
| Cc1cc(C(=O)N2CCC3(CC2)CC(=O)c2nc(C(C)(C)C)sc2C3)cc2c(Cl)c[nH]c12 [Example 42, 2-(tert-butyl)-1′-(3-chloro-7-methyl-1H-indole-5-carbonyl)-5H-spiro[benzo[d]thiazole-6,4′-piperidin]-4(7H)-one] | 15.9 nM | 3.1 nM |
| CNc1cnc2c(C)cc(C(=O)N3CCC4(CC3)CC(=O)c3nc(C(C)(C)C)sc3C4)cc2c1 [Example 15, 2-(tert-butyl)-1′-(8-methyl-3-(methylamino)quinoline-6-carbonyl)-5H-spiro[benzo[d]thiazole-6,4′-piperidin]-4(7H)-one] | 12.9 nM | 3.4 nM |
| CCNc1cnc2c(C)cc(C(=O)N3CCC4(CC3)CC(=O)c3nc(C(C)(C)C)sc3C4)cc2c1 [Example 18, 2-(tert-butyl)-1′-(3-(ethylamino)-8-methylquinoline-6-carbonyl)-5H-spiro[benzo[d]thiazole-6,4′-piperidin]-4(7H)-one] | – | 3.2 nM |
| CNc1ccc2c(OC)cc(C(=O)N3CCC4(CC3)CC(=O)c3nc(C(C)(C)C)sc3C4)cc2n1 [Example 40, 2-(tert-butyl)-1′-(5-methoxy-2-(methylamino)quinoline-7-carbonyl)-5H-spiro[benzo[d]thiazole-6,4′-piperidin]-4(7H)-one] | – | 1.5 nM |
| COc1cccc2ncc(C(=O)N3CCC4(CC3)CC(=O)c3nc(C(C)(C)C)sc3C4)cc12 [Example 66] | – | 115 nM |

Further lines, results first:

| IC50 [1] | IC50 [2] | Compound |
| --- | --- | --- |
| 16.7 nM | 4.1 nM | Cn1ccc2c(Cl)cc(C(=O)N3CCC4(CC3)CC(=O)c3nc(C(C)(C)C)sc3C4)cc21 [Example 79] |
| 16.2 nM | 1.8 nM | CNc1nc2c(C)cccc2cc1C(=O)N1CCC2(CC1)CC(=O)c1nc(C(C)(C)C)sc1C2 [Example 97] |
| 47.2 nM | 11.7 nM | COc1cc(C(=O)N2CCC3(CC2)CC(=O)c2nc(C(C)(C)C)sc2C3)cc(OC)c1C [Example 81] |
| – | 15 nM | CC(C)(C)c1nc2c(s1)CC1(CCN(C(=O)c3ccc(Cl)c4[nH]ccc34)CC1)CC2=O [Example 88] |
| – | 33.6 nM | CCc1cnc2c(OC)cc(C(=O)N3CCC4(CC3)CC(=O)c3nc(C(C)(C)C)sc3C4)cc2c1 [Example 105] |
| – | 10000 nM | CC(C)(C)c1nc2c(s1)CC1(CCN(C(=O)c3ccc4nccc(O)c4c3)CC1)CC2=O [Example 72] |
| – | 3.1 nM | COc1cc(C(=O)N2CCC3(CC2)CC(=O)c2nc(C(C)(C)C)sc2C3)cc2c(OC)nccc12 [Example 100] |
